Results on 3 molecules are retold here after PMC6658998, “Pharmacological characterization of the seven human NOX isoforms and their inhibitors” (Redox Biology, 2019).

In assay [1] the target is NOX4. The arrangement: method as in PMID 27273790. The following applies: documented values, measured using Amplex Red/HRP assay; cited from earlier work.
The target in assay [2] is NOX2. The arrangement: method as in PMID 27273790. Conditions: documented values, measured using Amplex Red/HRP assay; cited from earlier work.
The next assay concerns the target NOX5. The arrangement: method as in PMID 27273790. The following applies: documented values, measured using Amplex Red/HRP assay; cited from earlier work.
The target of another assay is NOX1. Also on record: method as in PMID 27273790. The following applies: documented values, measured using Amplex Red/HRP assay; cited from earlier work.
Assay [3] has as its target T1, NOX2 (Homo sapiens, UniProt P04839).
T1 sequence (P04839 2-570 limits assumed): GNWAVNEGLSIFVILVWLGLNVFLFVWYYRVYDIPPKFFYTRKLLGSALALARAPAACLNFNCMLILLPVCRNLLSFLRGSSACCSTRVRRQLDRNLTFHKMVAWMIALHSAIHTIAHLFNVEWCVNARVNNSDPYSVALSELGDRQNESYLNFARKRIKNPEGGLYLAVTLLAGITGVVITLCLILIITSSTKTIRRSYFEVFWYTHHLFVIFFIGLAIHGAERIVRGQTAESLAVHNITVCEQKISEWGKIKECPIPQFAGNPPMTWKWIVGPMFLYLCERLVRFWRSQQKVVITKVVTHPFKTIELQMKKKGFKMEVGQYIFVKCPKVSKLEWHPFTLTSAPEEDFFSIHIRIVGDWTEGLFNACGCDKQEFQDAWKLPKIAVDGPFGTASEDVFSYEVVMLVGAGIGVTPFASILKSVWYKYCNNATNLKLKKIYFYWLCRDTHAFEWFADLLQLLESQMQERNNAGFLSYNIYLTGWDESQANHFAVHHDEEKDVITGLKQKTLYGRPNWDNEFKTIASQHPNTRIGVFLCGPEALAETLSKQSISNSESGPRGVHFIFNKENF
As to the kind of experiment: NOX2 activity in purified PLB-985 membranes (WST-1, CBA). Type of assay: biochemical. As for the experimental part: PLB-985 (40 dishes 150 cm^2) were grown in suspension and differentiated by addition of 1.25% DMSO for 72 h. HEK293 cells expressing NOX5 (40 dishes 150 cm^2) were amplified until confluence and detached using trypsin-EDTA for 5 min followed by addition of 2 vol of pre-warmed complete growth media to inactivate trypsin. Collected cells were centrifuged at 4000 ×g for 10 min. Cells were washed with PBS and centrifuged at 1500 ×g for 10 min. The supernatant was discarded and the pellet was placed at −80 °C for at least 30 min. […] Samples were sonicated two times for 25 s (level 7, Branson Sonifier 250). Cell debris were removed by centrifugation at 800 ×g for 10 min at 4 °C. […] Protein concentration was determined with Bradford reagent using BSA as a standard. […]
NOX2 containing membranes were used at 10 μg/mL of proteins in a reaction mixture containing 90 nM recombinant RacQ61L, 45 nM recombinant p67Np47 N chimeric protein (consisting of a fusion of the N-termini of human p67phox [residues 1–210] and p47phox [residues 1–286]), 90 μM SDS, 1 μM FAD-Na2 and 1 mM WST-1 or 800 μM CBA in PBS. The reaction mixture was dispensed in 96-well plates (transparent for WST-1 absorbance, black for CBA fluorescence) at 80 μL/well and the plate was incubated for 5 min at 37 °C. […]

In another assay the test system is all NOX isoforms. The following applies: compound 10 μM, NOX1-5, DUOX1, DUOX2 cell lines.
The target of assay [4] is NOX4 (Homo sapiens, UniProt Q9NPH5). The following applies: NOX4 T-rex cells, tetracycline 24 h, antimycin A 1 μM, compound 10 μM.
Sequence of NOX4 (Homo sapiens, UniProt Q9NPH5) (Q9NPH5 whole entry): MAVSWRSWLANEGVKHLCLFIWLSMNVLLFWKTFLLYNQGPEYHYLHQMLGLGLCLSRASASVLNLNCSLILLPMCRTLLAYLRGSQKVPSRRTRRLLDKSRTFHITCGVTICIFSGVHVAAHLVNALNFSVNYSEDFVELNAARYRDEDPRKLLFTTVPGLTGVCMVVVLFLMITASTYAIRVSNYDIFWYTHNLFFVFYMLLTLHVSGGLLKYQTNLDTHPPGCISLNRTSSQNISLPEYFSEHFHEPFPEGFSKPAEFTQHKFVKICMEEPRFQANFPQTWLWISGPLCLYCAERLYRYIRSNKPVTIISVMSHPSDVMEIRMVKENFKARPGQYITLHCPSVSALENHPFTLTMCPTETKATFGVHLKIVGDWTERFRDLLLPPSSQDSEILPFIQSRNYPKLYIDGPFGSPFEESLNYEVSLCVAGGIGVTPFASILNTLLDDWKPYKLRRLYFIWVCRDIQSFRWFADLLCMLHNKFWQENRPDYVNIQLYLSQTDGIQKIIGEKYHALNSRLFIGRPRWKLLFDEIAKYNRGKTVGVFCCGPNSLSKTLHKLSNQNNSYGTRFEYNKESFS
Sequence of NOX4 (Homo sapiens, UniProt Q9NPH5) (P13498 whole entry partner): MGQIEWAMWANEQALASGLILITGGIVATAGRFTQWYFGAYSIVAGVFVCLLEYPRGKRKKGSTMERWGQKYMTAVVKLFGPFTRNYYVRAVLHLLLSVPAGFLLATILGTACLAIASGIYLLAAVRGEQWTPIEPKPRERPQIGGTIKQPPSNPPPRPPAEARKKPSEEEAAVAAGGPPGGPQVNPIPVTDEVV
Protocol: For NOX4-dependent oxygen consumption, NOX4 T-Rex HEK cells (50,000 cells/well) were plated onto poly-L-lysine coated XF24 cell culture microplates (Seahorse), treated with 1 μg/mL tetracycline and incubated at 37 °C with 5% CO2 for 24 h. One hour prior to assay, the medium was changed to DMEM without carbonate buffer supplemented with 10 mM HEPES, pH 7.4 and the cells were then incubated for 1 h at 37 °C in normal atmosphere. The baseline oxygen consumption rate (OCR) was recorded 3 times before rotenone (1 μM) and antimycin A (1 μM) were added to eliminate mitochondrial oxygen consumption and 1 OCR cycle was measured. Test compounds were added in the second injection and 4 OCR cycles were recorded. Each OCR cycle was as follows: 3 min mixing; 2 min waiting; 3 min measuring. The basal OCR in tetracycline-induced cells (prior to addition of blockers of mitochondrial respiration) was considered as 100%. Data were analysed using Wave XFe 2.1.0 software. At least three independent experiments were performed for each compound.

As to `Cc1c2c(=O)n(-c3ccccc3Cl)[nH]c2cc(=O)n1Cc1ccccn1` [GKT136901], the “Ki NOX4” value on NOX4 [1] was “nanomolar range”. Also, the “Ki NOX2” value on NOX2 [2] is recorded as “micromolar range”. Moreover, the “Ki NOX5” value at NOX5 is “nanomolar range”. Besides, the “Ki NOX1” value on NOX1 is on record as “nanomolar range”.

`O=c1c2ccccc2[se]n1-c1ccccc1` [Ebselen, ebselen]: the “Inhibition of NOX2-dependent signal in membranes” value at NOX2 [3] (compound 50 μM) was “inhibited”.

With `c1ccc2c(c1)[I+]c1ccccc1-2` [DPI, diphenylene iodonium chloride], the “Inhibition of NOX isoforms in cell lines” value with all NOX isoforms is “inhibits all NOX isoforms”. The “Inhibitory activity in NOX2 membrane assay” value on NOX2 [3] (WST-1 / CBA, concentration not given) is “potently inhibited”. Besides, the “Inhibition of NOX4-dependent (non-mitochondrial) oxygen consumption” value on NOX4 [4] is given as “inhibited”.
